Tests used:
[1] = tested on: HCV Genotype 1 (either Genotype 1a or Genotype 1b); test: Rising multiple dose study in non-responder patients, HCV-RNA viral load by RT-PCR; format: in vivo
Method: A rising multiple dose study was conducted in four groups of non-responder patients in which 100, 200 and 400 mg BID and 400 mg TID dosages of the compound of Formula la were administered for 14 days. […] The methodology used was a randomized, placebo controlled, multi-center, third-party-blind, multiple-dose study of the compound of Formula Ia in non-responders conducted in accordance with Good Clinical Practices. For the purpose of this study, it should be noted that the non-responders also were patients in whom one or more symptoms were established in association with, or the possibility of one or more symptoms was suspected of in association with, HCV Genotype 1 (either Genotype 1a or Genotype 1b) specifically. In order to measure viral load, the Hepatitis C virus RNA (HCV-RNA) is measured by extracting total RNA from plasma or serum samples and using an in-house real-time reverse transcriptase polymerase chain reaction (RT-PCR) assay with a lower limit of detection of 29 International Units (IU)/mL. The amplification target is the 5′-Untranslated region (UTR) of the HCV genome. An internal RNA control is added to each sample to assess the efficiency of RNA extraction. Appropriate negative and positive controls are added in each assay run. The assay method has been validated against the WHO International Standard for HCV. The HCV-RNA amount in a sample is reported as copies of HCV-RNA per mL of sample and also as HCV IU per mL of sample. When <100 copies of HCV-RNA per mL are found, the HCV-RNA is considered to be undetectible.

[2] = tested on: HCV Genotype 1 (1a or 1b); test: Parallel group, rising multiple-dose, 3 period crossover study in non-responders, HCV-RNA viral load; format: in vivo, patients
Method: In order to measure viral load, the Hepatitis C virus RNA (HCV-RNA) is measured by extracting total RNA from plasma or serum samples and using an in-house real-time reverse transcriptase polymerase chain reaction (RT-PCR) assay with a lower limit of detection of 29 International Units (IU)/mL. The amplification target is the 5′-Untranslated region (UTR) of the HCV genome. An internal RNA control is added to each sample to assess the efficiency of RNA extraction. Appropriate negative and positive controls are added in each assay run. The assay method has been validated against the WHO International Standard for HCV. The HCV-RNA amount in a sample is reported as copies of HCV-RNA per mL of sample and also as HCV IU per mL of sample. When <100 copies of HCV-RNA per mL are found, the HCV-RNA is considered to be undetectible.
A second study was commenced in patients having detectible levels ([…] copies per mL tissue or fluid) HCV Genotype 1 (1a or 1b) and whom were already established as non-responders from previous trials.
The methodology of the study was a parallel group, rising, multiple-dose, 3 period crossover (within each group) study in which subjects are treated with pegylated interferon (PEG-Intron, commercially available from Schering-Plough), 1.5 mcg/kg of the compound of Formula Ia or combination treatment of PEG-Intron 1.5 mcg/kg and the compound of Formula Ia. The doses of the compound of Formula Ia used for each group were 200 mg TID or 400 mg TID.
Twelve patients were treated in a random sequence with each 200 mg TID dose of the compound of Formula Ia alone for 7 days, PEG-Intron once weekly for two doses, and a combination treatment of 200 mg TID of the compound of Formula la plus PEG-Intron for 14 days. Preliminary results from the 200 mg TID dose group are illustrated in FIG. 2.

## CC(C)(C)NC(=O)N[C@H](C(=O)N1C[C@H]2[C@@H]([C@H]1C(=O)NC(CC1CCC1)C(=O)C(N)=O)C2(C)C)C(C)(C)C (mixture of isomers) [Formula Ia]
[1]; 400 mg TID for 14 days, monotherapy, 10 non-responder patients
  average maximum reduction of viral load from baseline: 2 logs
[1]; 100, 200 and 400 mg BID and 400 mg TID for 14 days
  effect of monotherapy on viral load: reduced viral load in all patients
[1]; after the 14-day treatment, all patients
  HCV-RNA viral load following discontinuation of treatment: returned to baseline levels in all patients
[2]; 200 mg TID alone for 7 days, preliminary results
  mean maximum HCV-RNA reduction: 0.85 logs
[2]; 200 mg TID in combination with PEG-Intron 1.5 mcg/kg weekly, two weeks of treatment
  average maximum reduction in HCV-RNA viral load: 2.4 logs
[2]; 200 mg TID in combination with PEG-Intron, 14 days
  course of viral load in the second week: viral load continued to decline in the second week
[2]; 200 mg TID in combination with PEG-Intron, end of 14 days, one patient (decrease by 4.5 logs)
  HCV-RNA viral load level of one patient at the end of therapy (undetectible): < 100 copies per mL of tissue or fluid
